Experimental findings from patent publication US20080227780A1, “SOLUBLE EPOXIDE HYDROLASE INHIBITORS” (Arete Therapeutics, Inc., priority 2007, published 2008) are described below.

Molecules are shown by their SMILES.

One test concerns soluble epoxide hydrolase (sEH). Description: Fluorescent assay for soluble epoxide hydrolase (CMNPC substrate), percent inhibition at the recited concentration. The test is classed as biochemical. Conditions: Inhibition Conc. 50 nM. The text has this: Fluorescent Assay for Mouse and Human Soluble Epoxide Hydrolase Recombinant mouse sEH (MsEH) and human sEH (HsEH) were produced in a baculovirus expression system as previously reported. Grant et al., J. Biol. Chem., 268:17628-17633 (1993); Beetham et al., Arch. Biochem. Biophys., 305:197-201 (1993). The expressed proteins were purified from cell lysate by affinity chromatography. Wixtrom et al., Anal. Biochem., 169:71-80 (1988). Protein concentration was quantified using the Pierce BCA assay using bovine serum albumin as the calibrating standard. The preparations were at least 97% pure as judged by SDS-PAGE and scanning densitometry. They contained no detectable esterase or glutathione transferase activity which can interfere with the assay. The assay was also evaluated with similar results in crude cell lysates or homogenate of tissues. The IC50s for each inhibitor were determined according to the following procedure: […] Jones P. D. et al.; Analytical Biochemistry 2005; 343: pp. 66-75) Bis/Tris HCl 25 mM pH 7.0 containing 0.1 mg/mL of BSA (buffer […] at 0.25 mM in DMSO. Mother solution of enzyme in buffer A (Mouse sEH at 6 μg/mL and Human sEH at 5 μg/mL). Inhibitor dissolved in DMSO at the appropriate concentration. In a black 96 well plate, fill all the wells with 150 μL of buffer A. Add 2 μL of DMSO in well A2 and A3, and then add 2 μL of inhibitor solution in A1 and A4 through A12. Add 150 μL of buffer A in row A, then mix several time and transfer 150 μL to row B. Repeat this operation up to row H. The 150 μL removed from row H is discarded. Add 20 μL of buffer A in column 1 and 2, then add 20 μL of enzyme solution to column 3 to 12. Incubate the plate for 5 minutes in the plate reader at 30° C. During incubation prepare the working solution of substrate by mixing 3.68 mL of buffer A (4×0.920 mL) with 266 μL (2×133 μL) of substrate solution). At t=0, add 30 μL of working substrate solution with multi-channel pipette labeled “Briggs 303” and start the reading ([S]final: 5 μM). Read with ex: 330 nm (20 nm) and em: 465 nm (20 nm) every 30 second for 10 minutes. The velocities are used to analyze and calculate the IC50s. Tables 1-7 above provide the percent inhibition of the enzyme when tested at the concentration recited therein.
`O=C(NC1CCN(S(=O)(=O)c2ccc(C(=O)O)cc2)CC1)NC12CC3CC(CC(C3)C1)C2` [Compound 7-45, 4-(4-(3-adamantylureido)piperidin-1-ylsulfonyl)benzoic acid]: the “% inh.” value is recorded as 92%.

Take `O=C(NC1CCN(S(=O)(=O)c2ccc(-c3ccccc3)cc2)CC1)NC12CC3CC(CC(C3)C1)C2` [Compound 7-24, 1-(1-(biphenyl-4-ylsulfonyl)piperidin-4-yl)-3-adamantylurea]: the “% inh.” value is on record as 96%.

Take `CC(C)(C)OC(=O)N1CCC(NC(=O)Nc2ccc3ncccc3c2)CC1` [Compound 6-1, tert-butyl 4-(3-quinolin-6-yl-ureido)piperidine-1-carboxylate]: the “% inh.” value is 86%. For `CS(=O)(=O)c1ccc(S(=O)(=O)N2CCC(NC(=O)NC34CC5CC(CC(C5)C3)C4)CC2)cc1` [Compound 7-41, 1-adamantyl-3-(1-(4-(methylsulfonyl)phenylsulfonyl)piperidin-4-yl)urea], the “% inh.” value came to 92%. As to `Cc1ccccc1S(=O)(=O)N1CCC(NC(=O)NC23CC4CC(CC(C4)C2)C3)CC1` [Compound 7-33, 1-adamantyl-3-(1-(o-tolylsulfonyl)piperidin-4-yl)urea], the “% inh.” value was 99%. Same read-out and setting: in the case of `CNS(=O)(=O)c1ccc(C(=O)N2CCC(NC(=O)NC34CC5CC(CC(C5)C3)C4)CC2)cc1` [Compound 4-8, 4-(4-(3-(1-adamantyl)ureido)-piperidine-1-carbonyl)-N-methylbenzene-sulfonamide] it was 93%; in that of `NC(=O)c1cccnc1N1CCC(NC(=O)Nc2ccc(C(F)(F)F)cc2)CC1` [Compound 2-6, 2-(4-(3-(4-(trifluoro-methyl)phenyl)ureido)-piperidin-1-yl)nicotinamide], 60%; in that of `O=C(NC1CCN(C(=O)c2ccc(Cl)cc2)CC1)NC12CC3CC(CC(C3)C1)C2` [Compound 7-46, 1-(1-(4-chlorobenzoyl)piperidin-4-yl)-3-adamantylurea], 96%. For the compound `CNS(=O)(=O)c1cccc(C(=O)N2CCC(NC(=O)NC34CC5CC(CC(C5)C3)C4)CC2)c1` [Compound 4-5, 3-(4-(3-(1-adamantyl)ureido)-piperidine-1-carbonyl)-N-methylbenzene-sulfonamide], the “% inh.” value was 99%. On the same count and under the same terms, in the case of `CNS(=O)(=O)c1ccc(C(=O)N2CCC(NC(=O)Nc3ccc(C(F)(F)F)cc3)CC2)cc1` [Compound 4-7, 4-(4-(3-(4-(trifluoromethyl)phenyl)ureido)piperidine-1-carbonyl)-N-methylbenzene-sulfonamide] it was 92%; in that of `O=C(Nc1ccc(C(F)(F)F)cc1)NC1CCN(c2ccccc2)CC1` [Compound 2-5, 1-(1-phenylpiperidin-4-yl)-3-(4-(trifluoro-methyl)phenyl)urea], 99%; in that of `CN(C)C(=O)N1CCC(NC(=O)Nc2ccc(C(F)(F)F)cc2)CC1` [Compound 7-21, N,N-dimethyl-4-(3-(4-(trifluoromethyl)phenyl)-ureido)piperidine-1-carboxamide], 86%. The same measure, in the same setting: in the case of `CC(=O)N1CCC(NC(=O)NC2CCC(C)(C)CC2)CC1` [Compound 7-6, 1-(1-acetylpiperidin-4-yl)-3-(4,4-dimethylcyclo-hexyl)urea] it was 70%. The same measure, in the same setting: in the case of `Cc1cccc(Cl)c1S(=O)(=O)N1CCC(NC(=O)NC23CC4CC(CC(C4)C2)C3)CC1` [Compound 7-35, 1-(1-(2-chloro-6-methylphenylsulfonyl)piperidin-4-yl)-3-adamantylurea] it was 98%.

The same test, now with this note: Inhibition Conc. 200 nM.
For `CC(C)S(=O)(=O)N1CCC(NC(=O)Nc2ccc(OC(F)(F)F)cc2)CC1` [Compound 7-55, 1-(1-(isopropylsulfonyl)piperidin-4-yl)-3-(4-(trifluoromethoxy)phenyl)urea], the “% inh.” value amounted to 94%. On the same count and under the same terms, in the case of `CC(=O)N1CCC(NC(=O)NC2CCCCCCC2)CC1` [Compound 7-84, 1-(1-acetylpiperidin-4-yl)-3-cyclooctylurea] it was 92%; in that of `O=C(NC1CCN(S(=O)(=O)CCCO)CC1)NC12CC3CC(CC(C3)C1)C2` [Compound 7-74, 1-adamantyl-3-(1-(3-hydroxypropylsulfonyl)piperidin-4-yl)urea], 99%; in that of `CC(=O)N1CCC(NC(=O)NC23CC4CC(C2)C(F)C(C4)C3)CC1` (centres unmarked) [Compound 3-11, 1-(1-acetylpiperidin-4-yl)-3-(4-fluoroadamantyl)urea], 88%.

Still in this test, the particulars now being: Inhibition Conc. 500 nM.
As for `CC(=O)N1CCC(NC(=O)NC2CCC(C(C)(C)C)CC2)CC1` (centres unmarked) [Compound 7-3, 1-(1-acetylpiperidin-4-yl)-3-(4-tert-butylcyclohexyl)urea], the “% inh.” value was determined as 86%. As to `CC(=O)N1CCC(NC(=O)NC23CC4CC(F)(CC(F)(C4)C2)C3)CC1` [Compound 3-3, 1-(1-acetylpiperidin-4-yl)-3-(3,5-difluoroadamant-1-yl)urea], the “% inh.” value came to 63%. Same read-out and setting: in the case of `CC(=O)N1CCC(NC(=O)NCCCCCCCCO)CC1` [Compound 1-6, 1-(1-acetylpiperidin-4-yl)-3-(8-hydroxyoctyl)urea] it was 85%; in that of `CC(C)(C)OC(=O)N1CCC(NC(=O)Nc2ccc3cc[nH]c3c2)CC1` [Compound 6-2, tert-butyl 4-(3-1H-indol-6-yl-ureido)piperidine-1-carboxylate], 87%; in that of `O=C(NC1CCCCC1)NC1CCN(C(=O)CCCN2CCOCC2)CC1` [Compound 7-61, 1-cyclohexyl-3-(1-(4-morpholinobutanoyl)piperidin-4-yl)urea], 83%.

Still in this test, the particulars now being: Inhibition Conc. 2000 nM.
`COC(=O)c1ccc(NC(=O)NC2CCN(C(=O)OC(C)(C)C)CC2)cc1` [Compound 7-67, tert-butyl 4-(3-(4-(methoxycarbonyl)phenyl)ureido)piperidine-1-carboxylate]: the “% inh.” value amounted to 96%. Turning to `COC(=O)c1ccc(CNC(=O)NC2CCN(C(C)=O)CC2)cc1` [Compound 1-8, methyl 4-((3-(1-acetylpiperidin-4-yl)ureido)methyl)benzoate], the “% inh.” value amounted to 95%.

Take `COc1ccc(NC(=O)NC2CCN(C(=O)C(C)(C)C)CC2)cn1` [Compound 6-13, 1-(6-methoxypyridin-3-yl)-3-(1-pivaloylpiperidin-4-yl)urea]: the “% inh.” value turned out to be 97%.

As to `CC(=O)N1CCC(NC(=O)NC2CCC(F)(F)CC2)CC1` [Compound 7-62, 1-(1-acetylpiperidin-4-yl)-3-(4,4-difluorocyclohexyl)urea], the “% inh.” value is 82%. Still for that read-out and setting: in the case of `CC(=O)N1CCC(NC(=O)Nc2ccc(N3CCOCC3)cc2)CC1` [Compound 7-87, 1-(1-acetylpiperidin-4-yl)-3-(4-morpholinophenyl)urea] it was 0%; in that of `CC(=O)N1CCC(NC(=O)Nc2ccc3nc(C)sc3c2)CC1` [Compound 6-15, 1-(1-acetylpiperidin-4-yl)-3-(2-methylbenzo[d]thiazol-6-yl)urea], 70%. Same read-out and setting: in the case of `CC(=O)N1CCC(NC(=O)Nc2ccccn2)CC1` [Compound 6-10, 1-(1-acetylpiperidin-4-yl)-3-(pyridin-2-yl)urea] it was 18%.

Staying with this test, now noted: Inhibition Conc. 5000 nM.
Consider `CS(=O)(=O)N1CCC(NC(=O)NC2CCN(S(C)(=O)=O)CC2)CC1` [Compound 8-1, 1,3-bis(1-(methylsulfonyl)piperidin-4-yl)urea], for which the “% inh.” value is listed as 79%. Still for that read-out and setting: in the case of `CC(=O)N1CCC(NC(=O)NC23CC4CC(CC(O)(C4)C2)C3)CC1` [Compound 3-2, 1-(1-acetylpiperidin-4-yl)-3-(3-hydroxyadamant-1-yl)urea] it was 67%.
